Results from US20110269815A1, “METHODS OF REDUCING CELLULAR PROLIFERATION BY INHIBITING ACSVL3” (THE JOHNS HOPKINS UNIVERSITY, priority 2008, published 2011).

What was measured:
ACSL1 = target: T1, ACSL1 (Rattus norvegicus, UniProt P18163); settings: cited from earlier work
T1 sequence (P18163 1-699): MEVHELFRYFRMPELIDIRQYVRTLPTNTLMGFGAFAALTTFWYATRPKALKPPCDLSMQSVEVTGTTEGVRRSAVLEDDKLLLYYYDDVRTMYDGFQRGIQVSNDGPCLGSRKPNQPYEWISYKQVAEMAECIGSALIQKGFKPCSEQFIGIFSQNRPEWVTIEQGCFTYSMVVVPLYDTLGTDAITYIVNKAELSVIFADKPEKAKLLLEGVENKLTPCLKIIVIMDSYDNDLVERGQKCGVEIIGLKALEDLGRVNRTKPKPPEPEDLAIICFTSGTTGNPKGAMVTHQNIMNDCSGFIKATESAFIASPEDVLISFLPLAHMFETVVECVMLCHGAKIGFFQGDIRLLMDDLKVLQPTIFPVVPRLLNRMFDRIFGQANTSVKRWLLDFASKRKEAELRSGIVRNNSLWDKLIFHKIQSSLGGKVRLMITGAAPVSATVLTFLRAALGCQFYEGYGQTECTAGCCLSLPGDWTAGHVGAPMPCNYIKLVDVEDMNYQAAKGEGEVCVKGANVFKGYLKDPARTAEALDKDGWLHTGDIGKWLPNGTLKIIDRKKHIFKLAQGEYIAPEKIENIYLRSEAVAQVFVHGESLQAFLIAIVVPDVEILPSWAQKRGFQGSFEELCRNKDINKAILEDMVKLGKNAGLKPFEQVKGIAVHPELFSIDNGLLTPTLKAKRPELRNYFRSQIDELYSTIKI

ACSL3 = ACSL3 (Rattus norvegicus, UniProt Q63151); settings: cited from earlier work
ACSL4 = ACSL4 (Rattus norvegicus, UniProt O35547); settings: cited from earlier work
ACSVL1 (FATP2) = ACSVL1 (FATP2) (Homo sapiens, UniProt O14975); settings: cited from earlier work
ACSL5 = target: T2, ACSL5 (Rattus norvegicus, UniProt O88813); settings: cited from earlier work
T2 sequence (O88813 1-683): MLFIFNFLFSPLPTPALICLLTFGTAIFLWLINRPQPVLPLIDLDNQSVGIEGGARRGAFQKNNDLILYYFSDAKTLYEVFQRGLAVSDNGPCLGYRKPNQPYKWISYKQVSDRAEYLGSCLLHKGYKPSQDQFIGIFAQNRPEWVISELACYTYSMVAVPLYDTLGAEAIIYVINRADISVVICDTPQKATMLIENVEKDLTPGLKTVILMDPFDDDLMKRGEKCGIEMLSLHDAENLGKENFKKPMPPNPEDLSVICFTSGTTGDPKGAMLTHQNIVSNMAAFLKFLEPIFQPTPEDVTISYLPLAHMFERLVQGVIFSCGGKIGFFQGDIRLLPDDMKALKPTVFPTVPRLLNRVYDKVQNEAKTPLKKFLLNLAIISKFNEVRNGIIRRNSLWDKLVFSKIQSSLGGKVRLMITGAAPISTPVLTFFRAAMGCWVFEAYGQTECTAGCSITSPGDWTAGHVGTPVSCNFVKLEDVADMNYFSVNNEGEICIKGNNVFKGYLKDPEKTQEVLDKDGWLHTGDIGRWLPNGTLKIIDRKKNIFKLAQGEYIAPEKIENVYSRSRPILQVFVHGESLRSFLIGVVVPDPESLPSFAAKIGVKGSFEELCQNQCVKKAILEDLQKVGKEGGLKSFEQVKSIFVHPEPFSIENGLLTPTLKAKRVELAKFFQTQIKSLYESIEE

ACSL6 = target: T3, ACSL6 (Rattus norvegicus, UniProt P33124); settings: cited from earlier work
T3 sequence (P33124 1-697): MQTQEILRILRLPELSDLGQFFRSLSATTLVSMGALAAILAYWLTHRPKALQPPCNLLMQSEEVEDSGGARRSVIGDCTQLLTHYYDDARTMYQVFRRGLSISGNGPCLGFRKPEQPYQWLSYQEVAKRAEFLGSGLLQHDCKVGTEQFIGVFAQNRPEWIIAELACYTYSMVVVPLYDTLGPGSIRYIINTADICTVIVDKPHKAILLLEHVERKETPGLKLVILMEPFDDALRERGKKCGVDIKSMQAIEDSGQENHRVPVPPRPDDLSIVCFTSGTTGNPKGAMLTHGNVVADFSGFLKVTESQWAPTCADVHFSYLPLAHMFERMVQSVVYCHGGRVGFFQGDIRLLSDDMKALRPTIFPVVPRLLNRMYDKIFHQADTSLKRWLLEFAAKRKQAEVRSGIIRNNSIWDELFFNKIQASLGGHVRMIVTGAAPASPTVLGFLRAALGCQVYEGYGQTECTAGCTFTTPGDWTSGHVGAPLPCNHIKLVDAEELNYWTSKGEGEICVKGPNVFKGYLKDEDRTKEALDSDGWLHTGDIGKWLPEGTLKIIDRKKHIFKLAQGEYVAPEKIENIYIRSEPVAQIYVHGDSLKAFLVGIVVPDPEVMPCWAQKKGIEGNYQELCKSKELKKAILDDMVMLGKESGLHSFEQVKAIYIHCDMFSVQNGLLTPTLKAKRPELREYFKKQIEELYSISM

ACSVL5 (FATP4) = ACSVL5 (FATP4) (Mus musculus, UniProt Q91VE0); settings: cited from earlier work
ACSBG2 = target: T4, ACSBG2 (Homo sapiens, UniProt Q5FVE4); settings: cited from earlier work
T4 sequence (Q5FVE4 1-666): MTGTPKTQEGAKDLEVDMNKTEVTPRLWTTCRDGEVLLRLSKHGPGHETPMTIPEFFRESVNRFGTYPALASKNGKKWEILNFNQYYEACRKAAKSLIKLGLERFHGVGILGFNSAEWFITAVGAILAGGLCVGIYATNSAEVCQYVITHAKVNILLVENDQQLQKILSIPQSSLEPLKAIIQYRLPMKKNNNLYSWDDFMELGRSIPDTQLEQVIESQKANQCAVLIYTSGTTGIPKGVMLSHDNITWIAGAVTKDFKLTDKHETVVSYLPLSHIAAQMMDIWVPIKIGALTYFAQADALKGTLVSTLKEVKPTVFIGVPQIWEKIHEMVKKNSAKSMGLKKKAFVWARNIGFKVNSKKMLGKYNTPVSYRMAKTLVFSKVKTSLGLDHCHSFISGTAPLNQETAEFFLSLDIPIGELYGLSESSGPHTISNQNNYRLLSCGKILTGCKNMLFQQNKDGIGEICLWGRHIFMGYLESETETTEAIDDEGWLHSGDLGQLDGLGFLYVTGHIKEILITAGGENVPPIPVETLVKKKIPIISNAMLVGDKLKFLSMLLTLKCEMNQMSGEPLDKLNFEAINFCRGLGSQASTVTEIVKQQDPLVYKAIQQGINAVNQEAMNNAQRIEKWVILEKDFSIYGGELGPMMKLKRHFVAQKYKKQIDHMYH

[1] = test system: lung (NCI-H23) cancer cell line; settings: cited from earlier work
[2] = test system: colon (HCT-15) cancer cell line; settings: cited from earlier work
[3] = test system: brain (SF268) cancer cell line; settings: cited from earlier work
cardiolipin = settings: cited from earlier work
ACSVL3 mRNA = test: Transient ACSVL3 KD in U87 cells, ACSVL3 expression by immunofluorescence and Western blot; type: cell-based, human; settings: day 3 post-transfection, indirect immunofluorescence and Western blot
Procedure: Transient ACSVL3 KD. Four different small interfering RNA (siRNA) constructs targeting different regions of ACSVL3 mRNA were produced using the pSilencer™ kit (Applied Biosystems/Ambion; Austin Tex.). U87 cells were transfected with each construct using siPORT™ Lipid reagent (Applied Biosystems/Ambion). ACSVL3 expression was assessed on day 3 post-transfection by indirect immunofluorescence and Western blot and found to be decreased by siRNA ACSVL3-3 and -4, but not -1 or -2 (data not shown). siRNA ACSVL3-3 (5′-CACGGCTCGCGGCGCTTTA-3′ (SEQ ID NO: 1)) targets by 394-412 of ACSVL3 mRNA and ACSVL3-4 (5′-CGTCTATGGAGTCACTGTG-3′ (SEQ ID NO: 2)) targets by 1861-1879. Transient ACSVL3 KD in Mayo-22 cells was achieved by transfection with ACSVL3-3 using siPORT™ Lipid reagent. Control cells received siRNA with a scrambled nucleotide sequence (supplied by Ambion).
Immunohistochemistry, immunofluorescence, and Western blotting. […] ACSVL3 was detected on Western blots with SuperSignal West Pico chemiluminescent substrate (Pierce Biotechnology, Rockford Ill.). Total and phospho-Akt (ser473) were detected with antibodies from BD Biosciences (San Jose Calif.) and Cell Signaling Technology (Danvers Mass.), respectively, and quantitated with the LiCOR Odyssey dual wavelength infrared system. Protein was determined by the method of Lowry et al. (16).

Sequence of ACSVL5 (FATP4) (Q91VE0 whole entry): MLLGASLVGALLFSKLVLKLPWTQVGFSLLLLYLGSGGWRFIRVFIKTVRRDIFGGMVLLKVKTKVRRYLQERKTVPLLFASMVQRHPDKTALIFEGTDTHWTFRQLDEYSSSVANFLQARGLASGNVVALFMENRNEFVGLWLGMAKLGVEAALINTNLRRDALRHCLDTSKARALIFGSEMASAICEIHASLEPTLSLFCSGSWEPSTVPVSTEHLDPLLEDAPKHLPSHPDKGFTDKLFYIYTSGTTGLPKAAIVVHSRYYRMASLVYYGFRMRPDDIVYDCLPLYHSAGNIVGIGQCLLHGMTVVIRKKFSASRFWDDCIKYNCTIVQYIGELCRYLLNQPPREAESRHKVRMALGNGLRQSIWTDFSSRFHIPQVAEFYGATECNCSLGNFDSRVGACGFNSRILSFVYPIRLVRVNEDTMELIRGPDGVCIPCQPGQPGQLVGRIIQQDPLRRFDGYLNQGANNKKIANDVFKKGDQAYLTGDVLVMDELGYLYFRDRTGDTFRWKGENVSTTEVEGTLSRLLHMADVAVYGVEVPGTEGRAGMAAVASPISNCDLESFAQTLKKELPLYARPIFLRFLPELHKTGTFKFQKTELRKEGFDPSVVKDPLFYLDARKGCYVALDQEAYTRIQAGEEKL
Sequence of ACSL4 (O35547 whole entry): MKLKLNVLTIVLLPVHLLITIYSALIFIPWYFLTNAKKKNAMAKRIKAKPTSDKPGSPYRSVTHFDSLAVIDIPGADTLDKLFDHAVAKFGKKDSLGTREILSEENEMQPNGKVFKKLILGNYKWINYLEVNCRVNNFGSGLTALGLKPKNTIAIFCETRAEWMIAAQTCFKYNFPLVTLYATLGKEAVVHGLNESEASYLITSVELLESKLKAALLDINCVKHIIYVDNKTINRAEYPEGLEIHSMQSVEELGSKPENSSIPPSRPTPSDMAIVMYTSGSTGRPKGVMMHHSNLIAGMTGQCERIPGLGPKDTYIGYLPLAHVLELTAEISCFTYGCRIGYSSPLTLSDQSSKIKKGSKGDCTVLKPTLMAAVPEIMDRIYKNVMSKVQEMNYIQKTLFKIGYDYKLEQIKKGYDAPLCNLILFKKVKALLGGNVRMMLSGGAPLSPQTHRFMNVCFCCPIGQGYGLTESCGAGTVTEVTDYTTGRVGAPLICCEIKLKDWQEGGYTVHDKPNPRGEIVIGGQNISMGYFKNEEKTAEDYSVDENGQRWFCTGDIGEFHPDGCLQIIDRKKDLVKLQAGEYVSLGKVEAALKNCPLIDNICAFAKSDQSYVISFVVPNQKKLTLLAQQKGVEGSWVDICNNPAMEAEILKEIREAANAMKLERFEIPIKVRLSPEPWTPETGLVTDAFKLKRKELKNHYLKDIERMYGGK
Sequence of ACSL3 (Q63151 whole entry): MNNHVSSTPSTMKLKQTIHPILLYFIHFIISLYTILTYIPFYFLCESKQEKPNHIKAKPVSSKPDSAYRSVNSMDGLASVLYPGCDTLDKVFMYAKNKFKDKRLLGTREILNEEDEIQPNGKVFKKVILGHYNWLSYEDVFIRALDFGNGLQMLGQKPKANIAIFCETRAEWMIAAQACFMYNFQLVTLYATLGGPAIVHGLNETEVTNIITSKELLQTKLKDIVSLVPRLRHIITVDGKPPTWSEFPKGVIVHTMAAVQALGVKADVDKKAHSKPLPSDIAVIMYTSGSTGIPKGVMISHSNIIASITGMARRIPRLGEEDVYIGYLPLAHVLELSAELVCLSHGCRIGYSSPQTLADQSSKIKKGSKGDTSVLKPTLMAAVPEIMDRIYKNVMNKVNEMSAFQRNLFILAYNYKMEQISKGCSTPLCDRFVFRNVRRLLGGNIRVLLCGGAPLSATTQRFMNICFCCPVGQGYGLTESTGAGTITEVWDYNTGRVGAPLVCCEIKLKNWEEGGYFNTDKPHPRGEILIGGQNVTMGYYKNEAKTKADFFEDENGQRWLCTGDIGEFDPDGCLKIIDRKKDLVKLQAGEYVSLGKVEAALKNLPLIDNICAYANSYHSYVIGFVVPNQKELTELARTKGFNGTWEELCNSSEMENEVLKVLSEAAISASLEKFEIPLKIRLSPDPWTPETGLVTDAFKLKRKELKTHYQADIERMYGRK
Sequence of ACSVL1 (FATP2) (O14975 whole entry): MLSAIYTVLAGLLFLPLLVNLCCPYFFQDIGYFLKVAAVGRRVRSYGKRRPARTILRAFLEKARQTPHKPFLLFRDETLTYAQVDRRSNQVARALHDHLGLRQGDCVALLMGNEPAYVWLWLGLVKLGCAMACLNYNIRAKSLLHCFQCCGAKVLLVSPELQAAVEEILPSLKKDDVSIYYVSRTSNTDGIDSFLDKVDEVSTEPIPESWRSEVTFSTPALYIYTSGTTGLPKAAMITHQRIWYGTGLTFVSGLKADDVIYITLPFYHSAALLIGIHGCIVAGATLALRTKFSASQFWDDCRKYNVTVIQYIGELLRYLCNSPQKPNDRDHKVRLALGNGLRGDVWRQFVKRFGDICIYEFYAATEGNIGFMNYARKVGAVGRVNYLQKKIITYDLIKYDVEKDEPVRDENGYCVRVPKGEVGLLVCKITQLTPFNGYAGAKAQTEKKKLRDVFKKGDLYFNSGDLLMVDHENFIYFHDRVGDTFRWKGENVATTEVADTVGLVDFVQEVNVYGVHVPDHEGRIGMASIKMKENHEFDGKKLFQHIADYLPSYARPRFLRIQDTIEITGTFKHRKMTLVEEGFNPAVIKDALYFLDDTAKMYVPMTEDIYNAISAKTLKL

Row | Molecule | inhibition of ACSL1 (ACSL1) | inhibition of ACSL3 (ACSL3) | inhibition of ACSL4 (ACSL4) | inhibition of ACSVL1 (FATP2) (ACSVL1 (FATP2)) | inhibition of ACSL5 (ACSL5) | inhibition of ACSL6 (ACSL6) | inhibition of ACSVL5 (FATP4) (ACSVL5 (FATP4)) | inhibition of ACSBG2 (ACSBG2) | caspase activity [1] | caspase activity [2] | caspase activity [3] | mitochondrial level of cardiolipin (cardiolipin) | ACSVL3 expression (ACSVL3 mRNA)
1 | CCC/C=C/C/C=C/C=C/C=N/NN=O [triacsin c] | inhibits | inhibits | inhibits | inhibits | does not inhibit | does not inhibit | does not inhibit | does not inhibit | induced caspase activity | induced caspase activity | induced caspase activity | decreased | 
2 | siRNA ACSVL3-4: siRNA 5′-CGTCTATGGAGTCACTGTG-3′ (SEQ ID NO: 2), targets 1861-1879 of ACSVL3 mRNA (listed as DNA, chemistry not given here) |  |  |  |  |  |  |  |  |  |  |  |  | decreased
